Source: patent publication US8691818B2, “Cyclic triazo and diazo sodium channel blockers” (University Of Greenwich, priority 2008, dated 2014)
pIC50: −log10 of the molar value. Structures can show the parent of a compound that is named as a salt.

Experiments:
[1] = target: T1, DiHydroFolate Reductase (DHFR) (Rattus norvegicus, UniProt Q920D2); experiment: Inhibition of binding of [3H]methotrexate to rat liver homogenate supernatant; conditions: for inhibition at 125 µM: read-out: [3H]mtx binding (% inhibition @ 125 μM); for inhibition at 99 µM: read-out: [3H]mtx binding % inhibition (* 99 μM, *** uses fresh batch of supernatant), 99 μM, fresh batch of supernatant
T1 construct: from tissue; host or cells: rat liver homogenate supernatant
T1 sequence (Q920D2 1-187): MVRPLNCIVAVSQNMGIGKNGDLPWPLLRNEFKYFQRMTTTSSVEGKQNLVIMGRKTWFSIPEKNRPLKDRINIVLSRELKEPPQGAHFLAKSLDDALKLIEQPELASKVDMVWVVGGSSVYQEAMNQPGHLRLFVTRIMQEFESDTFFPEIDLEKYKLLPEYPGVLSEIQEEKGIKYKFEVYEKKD
Procedure: All steps were carried out at 4° (or on ice). Freshly dissected rat liver was dissected into 0.25M ice-cold Sucrose and subsequently homogenised (U-turrax) in 50 mM pH 6.0 phosphate buffer (10 ml/g tissue) containing 15 mM Dithiothreitol. The resulting homogenate was centrifuged@47,500×g for 20 min and supernatant (filtered through cotton wool to remove fatty lumps) stored @ −80° before use (Rothenberg et al).
Inhibition of the binding of [^3H]methotrexate to rat liver homogenate supernatant fractions were carried out essentially as described by Arons et al, 1975.
(§1) Data are presented as mean±sem of number of experiments indicated in brackets.

sodium channel = experiment: [14C]guanidine flux: veratrine-evoked uptake of [14C]guanidine into rat forebrain synaptosomes (primary sodium channel assay); format: biochemical; conditions: 30° for 2½ min
Procedure: The screening strategy is designed to select compounds with appropriate sodium channel blocking activity and low side effect liability. To this end all compounds are processed through the primary sodium channel assay (veratrine-evoked uptake of [^14C]guanidine into rat forebrain synaptosomes) and IC50 values computed from generated concentration-effect curves.
Experiments were performed using forebrain (whole brain less cerebellum/medulla) from Male Wistar rats weighing 175-250 g. All efforts were made to reduce the number of animals used and all experiments were carried out in accordance with the UK Animals (Scientific Procedures) Act, 1986 and the European Community Council Directive of 24 Nov. 1986 (86/609/EEC). Following killing of animals by stunning and decapitation, the forebrain (whole brain less cerebellum/medulla) was rapidly dissected and transferred to a weighed tube containing ice-cold 0.25M sucrose.
Synaptosomes (heavy and light mitochondrial fraction containing synaptosomes) were prepared by transferring the forebrain (of known wet weight) to a glass Potter vessel to which 9 volumes ice-cold 0.25M sucrose had been added and homogenising, using a teflon pestle, by 8 ‘up and down strokes’ of a Braun Potter S motor driven homogeniser set to 900 rpm. The resulting homogenate was centrifuged at 1036×g at 4° for 10 min and the supernatant collected. The remaining pellet was resuspended, as above, in fresh ice-cold 0.25M sucrose and the centrifugation step repeated. The supernatant fractions were pooled and centrifuged at 40,000×g (average) at 4° for 15 min and the resulting pellet resuspended in the appropriate assay buffer at a concentration of 20-25 mg wet weight per ml appropriate assay buffer.
Both assays were carried out using 14 ml polypropylene test tubes to which a range of concentrations of the compounds under test were added.
The [^14C] guanidinine flux assay was measured using the method of Pauwels P J et al (1986) but carried out@30° for 2½ min.
as §1

| SMILES | inhibition at 125 µM [1] [%] | pIC50 (sodium channel) | further results |
| --- | --- | --- | --- |
| CCn1nc(-c2cccc(-c3ccccc3)c2)c(N)nc1=N [CEN-162, 5(3)-Amino-6-(3-biphenyl)-2,3(2,5)-dihydro-3(5)-imino-2-ethyl-1,2,4-triazine methanesulfonate] | 57 | 4.92 | – |
| Nc1nnc(-c2cccc(C(F)(F)F)c2Cl)c(N)n1 [CEN-176, 3,5-Diamino-6-(2-chloro-3-trifluoromethylphenyl)-1,2,4-triazine] | 55 | 3.51 | – |
| Nc1nnc(-c2ccc(Oc3ccc(-c4nnc(N)nc4N)cc3)cc2)c(N)n1 [CEN-111, Bis-[3,5-Diamino-6-(4-ARYL)-1,2,4-triazine]] | 97 | 3.04 | – |
| C[n+]1cc(N)nc(N)c1-c1cc(Cl)cc(Cl)c1Cl [CEN-90] | 53 | 4.01 | – |
| Nc1nnc(-c2ccc3c(c2)OC(F)(F)O3)c(N)n1 [CEN-117, 3,5-Diamino-6-[5-(2,2-difluorobenzodioxolo)]-1,2,4-triazine] | 79 | < 3.00 | – |
| CCn1nc(-c2sc(Cl)c(Cl)c2Cl)c(N)nc1=N [CEN-195, 5(3)-Amino-6-{2-(3,4,5-trichloro)thienyl}-2,3(2,5)-dihydro-3(5)-imino-2-ethyl-1,2,4-triazine methanesulfonate] | – | 5.40 | inhibition at 99 µM [1]: -2% |
| Nc1nnc(-c2nc(Cl)ccc2Cl)c(N)n1 [CEN-188, 3,5-Diamino-6-[2-(3,6-dichloropyidyl)]-1,2,4-triazine] | 76 | 2.59 | – |
| Nc1nnc(-c2cccnc2Oc2ccccc2)c(N)n1 [CEN-167, 3,5-Diamino-6-[3-(2-phenoxypyidyl)]-1,2,4-triazine] | -2 | < 2.70 | – |
| C/C(=C\c1ccccc1)c1nnc(N)nc1N [CEN-112, 3,5-Diamino-6-[E-2-(3-phenyl)propenyl]-1,2,4-triazine] | 84 | 3.00 | – |
| CCCC(CCC)c1nnc(N)nc1N [CEN-170, 3,5-Diamino-6-(1-propylbutyl)-1,2,4-triazine tosylate] | 29 | 3.58 | – |
| Nc1nnc(-c2ccc(Cl)nc2)c(N)n1 [CEN-191, 3,5-Diamino-6-[3-(6-chloro-pyridyl)]-1,2,4-triazine] | 31 | 2.71 | – |
| CC(C)OCCn1nc(-c2cccc(Cl)c2Cl)c(N)nc1=N [CEN-91, 5(3)-Amino-6-(2,3-dichlorophenyl)-2,3(2,5)-dihydro-3(5)-imino-2-(2-isopropoxy)ethyl-1,2,4-triazine] | 94 | 3.43 | – |
| Cc1ccc(-c2nc(=N)n(C)nc2-c2ccc(C)cc2)cc1 [CEN-134, 3-Amino-2-methyl-5,6-bis(4-methylphenyl)-1,2,4-triazine mesylate] | 6 | 5.31 | – |
| Cn1nc(C2(c3ccc(Cl)cc3)CCCC2)c(N)nc1=N [CEN-150, 5(3)-Amino-6-{1-[1-(4-chlorophenyl)]cyclopentyl}-2,3(2,5)-dihydro-3(5)-imino-2-methyl-1,2,4-triazine methanesulfonate] | 27 | 4.79 | – |
| Nc1nnc(-c2cccc3c2OC(F)(F)O3)c(N)n1 [CEN-70, 3,5-Diamino-6-[4-(2,2-difluorobenzodioxolo)]-1,2,4-triazine] | 66 | 2.82 | – |
| Cn1nc(C(C)(c2ccccc2)c2ccccc2)c(N)nc1=N [CEN-149, 5(3)-Amino-6-(1,1-diphenylethyl)-2,3(2,5)-dihydro-3(5)-imino-2-methyl-1,2,4-triazine methanesulfonate] | 4 | 4.63 | – |
| CCn1nc(-c2cc(OC)c(OC)c(OC)c2)c(N)nc1=N [CEN-119, 5(3)-Amino-6-(3,4,5-trimethoxyphenyl)-2,3(2,5)-dihydro-3(5)-imino-2-ethyl-1,2,4-triazine methanesulfonate] | 52 | 2.71 | – |
| Nc1nnc(-c2cccc(-c3nnc(N)nc3N)c2)c(N)n1 [CEN-186] | 83 | < 2.70 | – |

| SMILES | inhibition at 125 µM [1] [%] | pIC50 (sodium channel) | further results |
| --- | --- | --- | --- |
| Cn1cc(-c2cccc(Cl)c2Cl)c(N)nc1=N [CEN-42, 4(2)-Amino-5-(2,3-dichlorophenyl)-2,4(2,5)-dihydro-2(4)-imino-1-methyl pyrimidine] | – | – | [3H]mtx binding (% inhibition @ 125 μM) ([1]; listed as 42, 125 µM): 32%; pIC50 (sodium channel; listed as 42): 3.21 |
| COc1ccc2c(OC)cccc2c1-c1nnc(N)nc1N [CEN-156] | – | – | [3H]mtx binding (% inhibition @ 125 μM) ([1]; listed as 156, 125 µM): 32%; pIC50 (sodium channel; listed as 156): 3.61 |
| Cn1cc(-c2cccc(Cl)c2Cl)c(N)nc1=N [CEN-43, 4(2)-Amino-5-(2,3-dichlorophenyl)-2,4(2,5)-dihydro-2(4)-imino-1-methylpyrimidine] | – | – | [3H]mtx binding (% inhibition @ 125 μM) ([1]; listed as 43, 125 µM): 20%; pIC50 (sodium channel; listed as 43): 3.20 |
| Nc1nnc(-c2ccc(F)c(Oc3ccccc3)c2)c(N)n1 [CEN-184, 3,5-Diamino-6-(4-fluoro-3-phenoxylphenyl)-1,2,4-triazine tosylate] | 104 | 4.47 | – |
| Nc1nnc(-c2cc(F)c(Cl)nc2Cl)c(N)n1 [CEN-190, 3,5-Diamino-6-[3-(2,6-dichloro-5-fluoropyidyl)]-1,2,4-triazine] | 6 | 3.09 | – |
| Cn1nc(-c2ccccc2OC(F)F)c(N)nc1=N [CEN-146, 5(3)-Amino-6-(2-difluoromethoxyphenyl)-2,3(2,5)-dihydro-3(5)-imino-2-methyl-1,2,4-triazine methanesulfonate] | 3 | 3.06 | – |
| Cn1nc(-c2sc(Cl)c(Cl)c2Cl)c(N)nc1=N [CEN-194, 5(3)-Amino-6-{2-(3,4,5-trichloro)thienyl}-2,3(2,5)-dihydro-3(5)-imino-2-methyl-1,2,4-triazine methanesulfonate] | – | 5.05 | inhibition at 99 µM [1]: -6% |
| Nc1nnc(-c2cnc(Cl)c(Cl)c2)c(N)n1 [CEN-168, 3,5-Diamino-6-[3-(5,6-dichloropyidyl)]-1,2,4-triazine] | 95 | 3.00 | – |
| Cn1nc(-c2ccc(Oc3ccc(-c4nn(C)c(=N)nc4N)cc3)cc2)c(N)nc1=N [CEN-116] | 70 | 3.02 | – |
| CCn1nc(-c2cccc(C(F)(F)F)c2Cl)c(N)nc1=N [CEN-178, 5(3)-Amino-6-(2-chloro-3-trifluoromethyphenyl)-2,3(2,5)-dihydro-3(5)-imino-2-ethyl-1,2,4-triazine methanesulphonate] | 27 | 4.55 | – |
| Nc1nnc(-c2cccc(Cl)n2)c(N)n1 [CEN-166, 3,5-Diamino-6-[2-(6-chloropyidyl)]-1,2,4-triazine] | 88 | 2.93 | – |
| Cn1nc(-c2ccc(Oc3ccccc3)cc2)c(N)nc1=N [CEN-102, 5(3)-Amino-6-(4-phenoxyphenyl)-2,3(2,5)-dihydro-3(5)-imino-2-methyl-1,2,4-triazine methanesulfonate] | 25 | 4.23 | – |
| Nc1nnc(-c2cc(C(F)(F)F)cc(C(F)(F)F)c2)c(N)n1 [CEN-175, 3,5-Diamino-6-[3,5 (bis-trifluoromethyl)phenyl]-1,2,4-triazine] | – | – | [3H]mtx binding (% inhibition @ 125 μM) ([1]; listed as 175, 125 µM): −4%; pIC50 (sodium channel; listed as 175): < 2.70 |
| Nc1nnc(-c2cccnc2Cl)c(N)n1 [CEN-164, 3,5-Diamino-6-[3-(2-chloropyidyl)]-1,2,4-triazine] | 0 | 3.16 | – |
| CC(C)c1cc(C(C)C)c(-c2nnc(N)nc2N)c(C(C)C)c1 [CEN-180, 3,5-Diamino-6-(2,4,6-triisopropylphenyl)-1,2,4-triazine tosylate] | -2 | < 2.70 | – |
| Nc1nnc(-c2cc3ccccc3oc2=O)c(N)n1 [CEN-133] | 17 | < 2.70 | – |
| Nc1cnc(-c2cccc3c2OC(F)(F)O3)c(N)n1 [CEN-89, 2,6-Diamino-3-(2,2-difluorobenzodioxol-4-yl)pyrazine] | 101 | 3.14 | – |
